Laboratory results reported in patent publication US10632147B2, “Methods and compositions for treating inflammatory disorders” (priority 2007, dated 2020).

How the values were obtained:
[1] = tested on: Staphylococcus aureus (MRSA) ATCC #33591; assay: Microbial Time Kill Assay; format: cell-based; conditions: 150 ppm AFC, 15 second contact time
[2] = tested on: Enterococcus faecium (VRE) ATCC #51559; assay: Microbial Time Kill Assay; format: cell-based; conditions: 150 ppm AFC, 15 second contact time
[3] = tested on: Acinetobacter baumannii ATCC #19606; assay: Microbial Time Kill Assay; format: cell-based; conditions: 150 ppm AFC, 15 second contact time
[4] = tested on: Enterobacter aerogenes ATCC #51342; assay: Microbial Time Kill Assay; format: cell-based; conditions: 150 ppm AFC, 15 second contact time
[5] = tested on: Enterococcus faecium ATCC #35667; assay: Microbial Time Kill Assay; format: cell-based; conditions: 150 ppm AFC, 15 second contact time
[6] = tested on: Klebsiella pneumonia ATCC #4352; assay: Microbial Time Kill Assay; format: cell-based; conditions: 150 ppm AFC, 15 second contact time
[7] = tested on: Micrococcus luteus ATCC #10240; assay: Microbial Time Kill Assay; format: cell-based; conditions: 150 ppm AFC, 15 second contact time
[8] = tested on: Proteus mirabilis ATCC #43071; assay: Microbial Time Kill Assay; format: cell-based; conditions: 150 ppm AFC, 15 second contact time
[9] = tested on: Staphylococcus epidermidis ATCC #14990; assay: Microbial Time Kill Assay; format: cell-based; conditions: 150 ppm AFC, 15 second contact time
[10] = tested on: Staphylococcus saprophyticus ATCC #15305; assay: Microbial Time Kill Assay; format: cell-based; conditions: 150 ppm AFC, 15 second contact time
[11] = tested on: Clostridium difficile (spores); assay: Endospore Time Kill Assay; format: cell-based; conditions: for Log Reduction / Vashe Log10 / Vashe Survivors / % Reduction (% Kill): ≤150 ppm AFC
[12] = tested on: Pseudomonas aeruginosa ATCC 15442; assay: Bactericidal suspension test; format: cell-based
[13] = tested on: Staphylococcus aureus ATCC 6538; assay: Bactericidal suspension test; format: cell-based
[14] = tested on: Bacillus cereus CIP 7 803; assay: Sporicidal suspension test; format: cell-based
[15] = tested on: Mycobacterium avium ATCC 15769; assay: Mycobactericidal suspension test; format: cell-based
Experimental: (§1) Broth cultures of either M. terrae (ATCC 15755) and M. avium (ATCC 15769) were grown for up to 35 days at 35° C. […] The plates were incubated for 4-5 weeks at 35° C. and colonies counted.

[16] = tested on: Mycobacterium terrae ATCC 15755; assay: Mycobactericidal suspension test; format: cell-based
Experimental: as §1

Salmonella choleraesuis = assay: Carrier test; format: cell-based; conditions: <180 ppm, glass slide carriers
human norovirus [17] = assay: Norovirus suspension test; format: cell-based; conditions: 20-200 mg/L, within a contact time of 20 seconds
[18] = tested on: wound pathogens including S. aureus, P. aeruginosa, E. coli, Enterococcus spp., and Candida spp.; assay: In vitro antimicrobial studies against wound pathogens; format: cell-based; conditions: within a 15 seconds contact time, even at ≤150 ppm
[19] = Dermal irritation study (Draize); format: in vivo, New Zealand white rabbits; conditions: 0.5 ml, 689.5 ppm AFC, intact and abraded site; Draize at 24 and 72 hours
Experimental: A skin irritation study was conducted on six healthy New Zealand white rabbits. The test article (0.5 ml hypochlorous acid, 689.5 ppm AFC) was applied to one intact and one abraded site on the clipped back of each rabbit. Skin reactions were evaluated by the Draize technique at 24 and 72 hours after dosing and the primary irritation index was calculated. There was no erythema or edema noted at any time period and there were no abnormal physical signs noted during the observation period.

[20] = Delayed dermal sensitization in guinea pig maximization test; format: in vivo; conditions: intradermal injection and occlusive patch; scored 24 and 48 hours after patch removal; solution 690 ppm AFC, hydrogel 500 ppm AFC
Acute oral toxicity = conditions: 500 ppm AFC, single dose of 5 g/kg orally, observed up to 14 days
human norovirus [21] = assay: Norovirus carrier test; conditions: ceramic tiles and stainless steels, 1 min contact time, 20-200 ppm, RNA testing
[22] = tested on: Salmonella typhimuium (strains TA1535, TA1537, TA98 and TA100); assay: Bacterial mutagenicity; conditions: 241-252 ppm AFC, absence and presence of liver S9 fraction
[23] = tested on: Escherichia coli (strain CM891); assay: Bacterial mutagenicity; conditions: 241-252 ppm AFC, absence and presence of liver S9 fraction
MS2 = MS2 coliphage virus carrier test; conditions: ceramic tiles and stainless steels, 1 min contact time, 20-200 ppm, infectivity
[24] = Pilot study HOCl versus Sulfamylon as irrigant over excised and grafted burn
[25] = hypochlorous acid 40-180 ppm, suspension test

OCl [hypochlorous acid]
% Reduction (% Kill) [1]: >99.999% | HOCl Solution Log10 [1]: ≤1 | HOCl Solution Survivors [1]: <10 | Log Reduction [1]: ≥5.20 | % Reduction (% Kill) [2]: >99.999% | HOCl Solution Log10 [2]: ≤1 | HOCl Solution Survivors [2]: <10 | Log Reduction [2]: ≥5.20 | % Reduction (% Kill) [3]: >99.999% | HOCl Solution Log10 [3]: ≤1 | HOCl Solution Survivors [3]: <10 | Log Reduction [3]: ≥5.15 | % Reduction (% Kill) [4]: >99.999% | HOCl Solution Log10 [4]: ≤1 | HOCl Solution Survivors [4]: <10 | Log Reduction [4]: ≥5.43 | % Reduction (% Kill) [5]: >99.999% | HOCl Solution Log10 [5]: ≤1 | HOCl Solution Survivors [5]: <10 | Log Reduction [5]: ≥5.08 | % Reduction (% Kill) [6]: >99.999% | HOCl Solution Log10 [6]: ≤1 | HOCl Solution Survivors [6]: <10 | Log Reduction [6]: ≥5.70 | % Reduction (% Kill) [7]: >99.999% | HOCl Solution Log10 [7]: ≤1 | HOCl Solution Survivors [7]: <10 | Log Reduction [7]: ≥5.04 | % Reduction (% Kill) [8]: >99.999% | HOCl Solution Log10 [8]: ≤1 | HOCl Solution Survivors [8]: <10 | Log Reduction [8]: ≥5.40 | % Reduction (% Kill) [9]: >99.999% | HOCl Solution Log10 [9]: ≤1 | HOCl Solution Survivors [9]: <10 | % Reduction (% Kill) [10]: >99.999% | HOCl Solution Log10 [10]: ≤1 | HOCl Solution Survivors [10]: <10 | Log Reduction [10]: ≥5.68 | contact time after which pass was achieved [11, 25]: 5 min | Log Reduction ([11]; contact time 15 seconds): 3.15 | Vashe Log10 ([11]; contact time 15 seconds): 2.52 | Vashe Survivors ([11]; contact time 15 seconds): 330 | % Reduction (% Kill) ([11]; contact time 15 seconds, listed as HOCl solution): 99.93% | % Reduction (% Kill) ([11]; contact time 15 seconds, listed as hypochlorous acid solution): > 99.9% | % Reduction (% Kill) ([11]; contact time 5 minutes): >99.999% | Log Reduction ([11]; contact time 5 minutes): ≥5.69 | Vashe Log10 ([11]; contact time 5 minutes): ≤1 | Vashe Survivors ([11]; contact time 5 minutes): <10 | contact time after which pass was achieved [12, 25]: 15 s | Test Result (Log reduction) ([12]; in 5 min., 20° C. ± 1° C.): >10^5 in 5 min. | contact time after which pass was achieved [13, 25]: 15 s | Test Result (Log reduction) ([13]; in 5 min., 20° C. ± 1° C.): >10^5 in 5 min. | contact time after which pass was achieved [14, 25]: 60 min | Test Result (Log reduction) ([14]; in 60 min., 20° C. ± 1° C.): >10^6 in 60 min. | contact time after which pass was achieved [15, 25]: 15 s | Test Result (Log reduction) ([15]; in 5 min., 20° C. ± 1° C.): >10^5 in 5 min. | contact time after which pass was achieved [16, 25]: 15 s | Test Result (Log reduction) ([16]; in 5 min., 20° C. ± 1° C.): >10^5 in 5 min. | Time to achieve pass (Salmonella choleraesuis): 2 min | reduction of human norovirus (human norovirus [17]): 3 log10 | kill [18]: > 5 log | dermal irritation [19]: no dermal irritation | delayed dermal contact sensitization [20]: no evidence of causing a delayed dermal contact sensitization | mortality or evidence of toxicity (Acute oral toxicity): no mortality or evidence of toxicity | inactivation of human norovirus (human norovirus [21]): > 3 log10 | mutagenic activity [22]: No evidence of mutagenic activity | mutagenic activity [23]: No evidence of mutagenic activity | inactivation of MS2 (MS2): > 3 log10 | safety profile (adverse effects) [24]: absence of adverse effects | graft take and infection prevention compared with Sulfamylon ([24]; 150-180 ppm AFC): equivalency | pain reduction (visual analogue scale) compared with Sulfamylon group ([24]; 150-180 ppm AFC): better
